Data published in ChEMBL document CHEMBL3745701, “Bioactive minor components of the total salvianolic acids injection prepared from Salvia miltiorrhiza Bge” (Bioorg Med Chem Lett, 2016).

What was measured:
[1] = Antioxidant activity assessed as DPPH radical scavenging activity at 0.125 mM after 30 mins; assay type: physicochemical; settings: 0.5 h, 125 µM
[2] = Antioxidant activity assessed as DPPH radical scavenging activity at 0.5 mM after 30 mins; assay type: physicochemical; settings: 0.5 h, 500 µM
[3] = Cytotoxicity against mouse Hepa-1c1c7 cells assessed as cell viability at 20 uM after 24 hrs by crystal violet staining-based assay; settings: read-out: Activity
[4] = Antioxidant activity assessed as DPPH radical scavenging activity at 2 mM after 30 mins; assay type: physicochemical; settings: 0.5 h, 2000 µM
[5] = target: NAD(P)H dehydrogenase [quinone] 1 (Mus musculus) (UniProt Q64669); assay: Induction of NQO1 activity in mouse Hepa-1c1c7 cells at 20 uM after 24 hrs by MTT assay relative to control; assay type: cell-based
[6] = target: NAD(P)H dehydrogenase [quinone] 1 (Mus musculus) (UniProt Q64669); assay: Induction of NQO1 activity in mouse Hepa-1c1c7 cells at 10 uM after 24 hrs by MTT assay relative to control; assay type: cell-based
[7] = Cytotoxicity against mouse Hepa-1c1c7 cells assessed as cell viability at 10 uM after 24 hrs by crystal violet staining-based assay; settings: read-out: Activity
[8] = Antioxidant activity assessed as DPPH radical scavenging activity at 0.05 mM after 30 mins; assay type: physicochemical; settings: 0.5 h, 50 µM

Sequence of NAD(P)H dehydrogenase [quinone] 1 (Mus musculus) (Q64669 whole entry): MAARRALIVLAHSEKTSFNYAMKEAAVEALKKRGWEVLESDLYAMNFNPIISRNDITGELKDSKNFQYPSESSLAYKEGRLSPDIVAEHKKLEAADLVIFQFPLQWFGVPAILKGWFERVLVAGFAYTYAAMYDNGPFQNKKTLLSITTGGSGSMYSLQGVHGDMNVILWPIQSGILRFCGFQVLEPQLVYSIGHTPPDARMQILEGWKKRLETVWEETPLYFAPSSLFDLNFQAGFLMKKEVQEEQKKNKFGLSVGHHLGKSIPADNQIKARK

Row | SMILES | inhibition (INH) [1] [%] | inhibition (INH) [2] [%] | viability at 24 h, 20 µM [3] [%] | inhibition (INH) [4] [%] | fold change (FC) [5] | fold change (FC) [6] | viability at 24 h, 10 µM [7] [%] | inhibition (INH) [8] [%]
1 | O=C(/C=C/c1ccc(O)c2c1[C@@H](C(=O)O[C@@H](Cc1ccc(O)c(O)c1)C(=O)O)[C@H](c1ccc(O)c(O)c1)O2)O[C@@H](Cc1ccc(O)c(O)c1)C(=O)O | 64.9 | 77.1 | 82 | 84.3 | 1.7 | 1.2 | 97 | 42.1
2 | O=c1cc(-c2ccc(Br)cc2)oc2ccccc12 | – | – | – | – | – | 2.9 | 109 | –
3 | O=C1O[C@H]([C@@H](O)CO)C(O)=C1O [ASCORBIC ACID] | 31.8 | 58.5 | – | 74.9 | – | – | – | 26
4 | O=C(/C=C/c1ccc(O)c(O)c1/C(=C/c1ccc(O)c(O)c1)C(=O)O[C@@H](Cc1ccc(O)c(O)c1)C(=O)O)O[C@@H](Cc1ccc(O)c(O)c1)C(=O)O | 8.1 | 14.8 | 88 | 53.6 | 2.6 | 1.4 | 94 | 4.4
5 | O=C(/C=C/c1ccc(O)c2c1[C@@H](C(=O)O[C@H](Cc1ccc(O)c(O)c1)C(=O)O)[C@H](c1ccc(O)c(O)c1)O2)O[C@H](Cc1ccc(O)c(O)c1)C(=O)O | 60.2 | 64.1 | 79 | 84.7 | 1.4 | 1 | 85 | 37.6
